Each structure is given as a SMILES string. Values joined by “and” are separate entries in the source; they are usually repeats but may differ in a detail not shown here. Equal values may be shown once.

One test concerns the target T1, Mcl-1 protein (Homo sapiens, UniProt Q07820).
T1 construct: human Mcl-1 (residues 171–323); His tag (pHis-TEV vector) (N, cleaved yes); made in house; host or cells: E. coli BL21 (DE3)
Nature of the test: FP-based competitive binding assay with fluorescent labelled Bid BH3 peptide. As to conditions: for Ki: calculated from FP IC50; for IC50: competition with fluorescent Bid probe 2 nM, 20 nM Mcl-1 for purchased compounds, 10 nM for synthesized library. As for the experimental part:
(§1) FP-based binding assays were developed and optimized to determine the binding affinities of inhibitors to the recombinant Mcl-1, Bcl-2, Bcl-xL, and Bfl-1, proteins. […] The fluorescent Bid probe was fixed at 2 nM for all assays, except for Bfl-1, where 1 nM was used. 5 μL of the tested compound in DMSO and 120 μL of protein/probe complex in the assay buffer were added to assay plates (Corning #3792), incubated at room temperature for 3 h, and the polarization values (mP) were measured at an excitation wavelength of 485 nm and an emission wavelength of 530 nm using the plate reader Synergy H1 Hybrid, BioTek. IC50 values were determined by nonlinear regression fitting of the competition curves (GraphPad Prism 6.0 Software). The Ki values were calculated as described previously.
(§2) 1. List of compounds purchased from vendors
(§3) Compound s 5, 6, 7, 8 and S3, S4, S5, S6 S7, S8, S9, S10, S17 were purchased from […]
(§4) Compound s 9, 10, 11 and S11, S12, S13 were purchased from I nterbioscreen […]
His-tagged proteins containing human Mcl-1 (residues 171–323), the isoform 2 construct of the human Bcl-2 [Bcl2-2 construct for protein production starts with the Bcl2 sequence of 1-34 a a, followed by the Bcl-xL seq uence of 35-50 aa, and ends with the Bcl-2 sequenc e of 92-202aa.], Bcl-xL (Human Bcl-xL protein, which has an internal deletion for the 45 -85 amino acid residues and a C -terminal truncation for the amino acid residues 212-233), and Bf l-1 (residues 1-151), were expres sed from the pHis -TEV vector (a modified pET vector) in E. coli BL21 (DE3) cells. Cells were grown at 37 °C in 2×YT containing antibiotics to an OD600 density of 1.5, 1 and 0.8 for Mcl-1, Bcl-xL and Bcl-2 respectively. Protein expression wa s induced by 0 .4 mM IPTG at 20 °C overnight for all proteins except for Bf l-1 which was e xpressed at 3 7 °C for four hours . Cells were lysed in 20 mM HEPES pH 7.5, 200 mM NaCl, 0.1% βME with Leupeptin/Aprotinin (Mcl-1), 25mM Tris pH 8.5, 200mM NaCl (Bcl-2), 50mM Tris pH 7.5, 200 mM NaCl (Bcl-xL) and 50 mM Tris pH 8, 500 mM NaCl, 0. 1% βME with Leupeptin/Aprotinin (Bf l-1). All […]
proteins were purified from the soluble fraction using Ni-NTA resin (QIAGEN), following the manufacturer’s instructions. For purification of TEV-cleaved protein, the amino-terminal His tag was cleaved by incubation with TEV protease and the protein was further purified by anion exchange (Source Q) and gel filtration chromatography (Superdex 75, Amersham Biosciences) in 20mM HEPES pH 7.0, 50 mM NaCl (Mcl-1), […]
NaCl, 0.1% βME (Bcl-xL) and 25 mM Tris pH 7.5, 150 mM NaCl, 25% Glycerol, 0.1% βME ( Bf l-1). His-tagged Mcl-1 protein was used for TR-FRET assay and HSQC-NMR.
His-TEV cleaved Mcl-1, Bcl-2, Bcl-xL, and Bf l-1 were used in fluorescent polarization and surface plasmon resonance binding assays.
Mutant Mcl-1 protein wa s prepared by the QuikChange site -directed mutagenesi s method (Stratagene) , where Arg263 was mutated to Ala. The R263A expression pla smid was transformed into Rosetta2 DE3 cells and purified by the same method as the wildtype protein. Cultures were grown to an OD 600 of 1. 5 at 37 °C in Terrific Broth, induced with 0. 4 mM IPTG, and express ed overnight at 20 °C. The follow-up purification was performed the same way as was for Mcl-1 wild-type recombinant

For another test, the target named is T2, Bfl-1 (Homo sapiens, UniProt Q16548).
T2 construct: Bf l-1 (residues 1-151); His tag (pHis-TEV vector) (N, cleaved yes); made in house; host or cells: E. coli BL21 (DE3)
T2 sequence (Q16548 1-151): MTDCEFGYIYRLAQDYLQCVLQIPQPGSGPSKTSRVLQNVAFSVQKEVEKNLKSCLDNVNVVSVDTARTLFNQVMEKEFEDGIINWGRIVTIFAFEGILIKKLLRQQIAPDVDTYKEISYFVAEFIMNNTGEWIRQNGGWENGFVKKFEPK
Nature of the test: FP-based competitive binding assay with FAM-Bid. As to conditions: for IC50: Bfl-1. The protocol:
as §1, §2, §3, §4
(§5) His-tagged proteins containing human Mcl-1 (residues 171–323), the isoform 2 construct of the human Bcl-2 [Bcl2-2 construct for protein production starts with the Bcl2 sequence of 1-34 a a, followed by the Bcl-xL seq uence of 35-50 aa, and ends with the Bcl-2 sequenc e of 92-202aa.], Bcl-xL (Human Bcl-xL protein, which has an internal deletion for the 45 -85 amino acid residues and a C -terminal truncation for the amino acid residues 212-233), and Bf l-1 (residues 1-151), were expres sed from the pHis -TEV vector (a modified pET vector) in E. coli BL21 (DE3) cells. Cells were grown at 37 °C in 2×YT containing antibiotics to an OD600 density of 1.5, 1 and 0.8 for Mcl-1, Bcl-xL and Bcl-2 respectively. Protein expression wa s induced by 0 .4 mM IPTG at 20 °C overnight for all proteins except for Bf l-1 which was e xpressed at 3 7 °C for four hours . Cells were lysed in 20 mM HEPES pH 7.5, 200 mM NaCl, 0.1% βME with Leupeptin/Aprotinin (Mcl-1), 25mM Tris pH 8.5, 200mM NaCl (Bcl-2), 50mM Tris pH 7.5, 200 mM NaCl (Bcl-xL) and 50 mM Tris pH 8, 500 mM NaCl, 0. 1% βME with Leupeptin/Aprotinin (Bf l-1). All

In the next test the target is T3, Bcl-2 (Homo sapiens, UniProt P10415, DEL35-91/INS34DVEENRTEAPEGTESE).
T3 construct: His tag (pHis-TEV vector) (N, cleaved yes); made in house; host or cells: E. coli BL21 (DE3)
The experiment in a line: FP-based competitive binding assay with FAM-Bid. The conditions noted are these: FP. As for the experimental part: as §1, §2, §3, §4, §5

A further test deals with T4, Bcl-xL (Homo sapiens, UniProt Q07817, DEL45-85).
T4 construct: His tag (pHis-TEV vector) (N, cleaved yes); made in house; host or cells: E. coli BL21 (DE3)
The experiment in a line: FP-based competitive binding assay with FAM-Bid. As to conditions: for IC50 / Ki: FP. As for the experimental part: as §1, §2, §3, §4, §5

T4 sequence (Q07817 with tags, fused parts or gaps DEL45-85 limits assumed): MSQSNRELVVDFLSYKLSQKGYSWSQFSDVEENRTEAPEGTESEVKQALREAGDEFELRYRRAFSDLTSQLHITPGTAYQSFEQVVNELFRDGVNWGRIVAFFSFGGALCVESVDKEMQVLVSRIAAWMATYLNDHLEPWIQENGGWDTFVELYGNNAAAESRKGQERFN
T3 sequence (P10415 with tags, fused parts or gaps INS34DVEEN/V35R/G36T/A37E/P40E/DEL42-87/P88T/V89E/P90S/P91E): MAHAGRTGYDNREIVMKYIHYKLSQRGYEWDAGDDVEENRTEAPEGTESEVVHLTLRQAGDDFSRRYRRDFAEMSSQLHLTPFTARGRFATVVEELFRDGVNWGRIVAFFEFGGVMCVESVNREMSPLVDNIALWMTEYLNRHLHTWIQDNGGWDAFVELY
T1 sequence (Q07820 171-323): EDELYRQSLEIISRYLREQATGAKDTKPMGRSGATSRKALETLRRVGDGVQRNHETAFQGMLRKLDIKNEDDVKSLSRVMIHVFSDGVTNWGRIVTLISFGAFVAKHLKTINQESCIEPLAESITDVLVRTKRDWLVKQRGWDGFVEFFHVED

As to `O=C(CSc1nnc(-c2ccco2)c(-c2ccco2)n1)Nc1cccc(C(F)(F)F)c1` [Compound 39], the Ki is 1.2 ± 0.1 µM at Mcl-1 protein, 10.4 µM at Bfl-1 (FP), more than 25 µM at Bcl-2 and more than 20 µM at Bcl-xL. Besides, the IC50 at Mcl-1 protein is 5.1 ± 0.5 µM; at Bfl-1, 75.9 ± 6.2 µM; on Bcl-2, more than 100 µM; at Bcl-xL, more than 100 µM. For the same molecule, the “fold lower binding affinity to Bfl-1 than to Mcl-1” value on Bfl-1 (ratio of Ki) is reported as 8 fold. Besides, the “fold lower binding affinity to Bcl-xL than to Mcl-1” value at Bcl-xL (ratio of Ki) was more than 17 fold.

As for `c1ccc(CCCCSc2nnc(-c3ccco3)c(-c3ccco3)n2)cc1` [Compound 44], the Ki was 0.3 ± 0.1 µM on Mcl-1 protein, 0.7 ± 0.1 µM at Bfl-1 (FP), more than 25 µM on Bcl-2 and more than 20 µM at Bcl-xL. The IC50 on Mcl-1 protein is 1.4 ± 0.2 µM; at Bfl-1, 5.1 ± 0.1 µM; on Bcl-2 it was more than 100 µM; on Bcl-xL, more than 100 µM.

For `O=C(CSc1nnc(-c2ccco2)c(-c2ccco2)n1)Nc1ccccc1` [Compound 19], the Ki at Mcl-1 protein was 3.2 ± 0.3 µM; on Bfl-1 (FP) it was 4.9 µM; on Bcl-2 it was more than 25 µM; on Bcl-xL, more than 20 µM. Besides, the 50% inhibitory concentration (IC50) on Mcl-1 protein is 13 µM and 13.8 µM; at Bfl-1, 35.6 ± 8.6 µM; on Bcl-2, more than 100 µM; on Bcl-xL, more than 100 µM. On Bfl-1 (FP), the “binding to Bfl-1 compared with Mcl-1” value is “lower binding to Bfl-1 in comparison to Mcl-1”.

For orientation: Ki means a dissociation constant, usually derived from enzyme kinetics or from competition with a known ligand. In general, IC50 refers to the concentration that inhibits the measured activity by half.

The values above are taken from publication PMC6033896, “Discovery of Mcl-1 inhibitors from integrated high throughput and virtual screening” (Scientific Reports, 2018).
